Measurements published in ChEMBL document CHEMBL1154987, “C-Aryl glycoside inhibitors of SGLT2: Exploration of sugar modifications including C-5 spirocyclization” (Bioorg Med Chem Lett, 2010).

What was measured:
[1] = molecular target: T1, Sodium/glucose cotransporter 1 (Homo sapiens, UniProt P13866); experiment: Inhibition of human SGLT1 expressed in CHO cells assessed as inhibition of sodium-dependent methyl-alpha-D-[U-14C]glucopyranoside uptake after 2 hrs; type: cell-based
T1 sequence (P13866 whole entry): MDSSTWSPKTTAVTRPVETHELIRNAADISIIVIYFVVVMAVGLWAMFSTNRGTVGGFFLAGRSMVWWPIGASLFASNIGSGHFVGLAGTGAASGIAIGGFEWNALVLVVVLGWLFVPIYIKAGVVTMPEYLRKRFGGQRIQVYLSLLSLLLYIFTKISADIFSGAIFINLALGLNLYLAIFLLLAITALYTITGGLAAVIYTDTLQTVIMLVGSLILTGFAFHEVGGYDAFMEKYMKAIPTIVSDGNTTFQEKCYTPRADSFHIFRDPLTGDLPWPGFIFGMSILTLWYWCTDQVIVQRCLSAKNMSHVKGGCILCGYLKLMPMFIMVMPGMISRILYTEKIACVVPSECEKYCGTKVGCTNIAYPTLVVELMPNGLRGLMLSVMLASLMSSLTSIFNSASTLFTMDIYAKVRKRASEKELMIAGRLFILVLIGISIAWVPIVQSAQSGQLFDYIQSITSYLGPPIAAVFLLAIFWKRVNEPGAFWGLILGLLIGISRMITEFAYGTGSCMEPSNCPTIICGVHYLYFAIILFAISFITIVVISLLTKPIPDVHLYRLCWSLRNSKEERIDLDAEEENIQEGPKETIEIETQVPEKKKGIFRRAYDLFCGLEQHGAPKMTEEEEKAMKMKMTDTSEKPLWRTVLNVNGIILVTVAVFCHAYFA

[2] = molecular target: T2, Sodium/glucose cotransporter 2 (Homo sapiens, UniProt P31639); experiment: Inhibition of human SGLT2 expressed in CHO cells assessed as inhibition of sodium-dependent methyl-alpha-D-[U-14C]glucopyranoside uptake after 2 hrs; type: cell-based
T2 sequence (P31639 whole entry): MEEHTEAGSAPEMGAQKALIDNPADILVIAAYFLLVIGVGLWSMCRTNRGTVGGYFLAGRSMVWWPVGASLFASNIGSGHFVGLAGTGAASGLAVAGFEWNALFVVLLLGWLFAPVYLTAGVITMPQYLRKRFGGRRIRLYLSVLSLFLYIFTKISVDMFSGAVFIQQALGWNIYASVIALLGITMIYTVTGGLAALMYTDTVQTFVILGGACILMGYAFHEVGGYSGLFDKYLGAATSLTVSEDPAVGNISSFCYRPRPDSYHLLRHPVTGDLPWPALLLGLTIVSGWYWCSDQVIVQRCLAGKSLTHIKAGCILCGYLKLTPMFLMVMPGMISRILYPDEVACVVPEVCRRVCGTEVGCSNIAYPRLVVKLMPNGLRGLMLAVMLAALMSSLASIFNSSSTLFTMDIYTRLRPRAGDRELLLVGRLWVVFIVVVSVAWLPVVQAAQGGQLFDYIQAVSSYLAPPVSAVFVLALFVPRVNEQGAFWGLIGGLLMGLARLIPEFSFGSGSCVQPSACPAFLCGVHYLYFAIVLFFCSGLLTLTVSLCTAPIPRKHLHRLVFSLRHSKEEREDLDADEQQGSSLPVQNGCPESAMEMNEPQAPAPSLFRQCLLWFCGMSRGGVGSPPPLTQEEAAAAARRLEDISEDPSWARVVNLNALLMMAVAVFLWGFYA

Homo sapiens = species on record: Homo sapiens; experiment: Selectivity ratio of IC50 for human SGLT2 over IC50 for human SGLT1
[3] = Clearance in Sprague-Dawley rat at 1 mg/kg, iv; type: ADME, organism-based; parameters: dose 1 mg/kg, route intravenous; conditions: in vivo
[4] = Volume of distribution at steady state in Sprague-Dawley rat at 1 mg/kg, iv; type: ADME, organism-based; parameters: dose 1 mg/kg, route intravenous; conditions: in vivo, read-out: Vdss
[5] = Half life in Sprague-Dawley rat at 1 mg/kg, iv; type: ADME, organism-based; parameters: dose 1 mg/kg, route intravenous; conditions: in vivo
[6] = Clearance in Sprague-Dawley rat at 2 mg/kg, iv; type: ADME, organism-based; parameters: dose 2 mg/kg, route intravenous; conditions: in vivo
[7] = Volume of distribution at steady state in Sprague-Dawley rat at 2 mg/kg, iv; type: ADME, organism-based; parameters: dose 2 mg/kg, route intravenous; conditions: in vivo, read-out: Vdss
[8] = Half life in Sprague-Dawley rat at 2 mg/kg, iv; type: ADME, organism-based; parameters: dose 2 mg/kg, route intravenous; conditions: in vivo
[9] = Oral bioavailability in Sprague-Dawley rat at 5 mg/kg; type: ADME, organism-based; conditions: in vivo
Rattus norvegicus = experiment: Antidiabetic activity in Sprague-Dawley rat assessed as maximum urinary glucose excretion at 60 mg/kg, po over 24 hrs measured per 200 g body weight; type: functional, Urine

| SMILES | IC50 [1] [nM] | IC50 [2] [nM] | further results |
| --- | --- | --- | --- |
| COc1ccc(Cc2cc([C@@H]3O[C@H](CO)[C@@H](O)[C@H](O)[C@H]3OC)ccc2Cl)cc1 | – | 140 | – |
| CCc1ccc(Cc2cc([C@@H]3OC4(CNC4)[C@@H](O)[C@H](O)[C@H]3O)ccc2C)cc1 | > 10000 | 5100 | – |
| COc1ccc(Cc2cc([C@@H]3OC(CO)(CO)[C@@H](O)[C@H](O)[C@H]3O)ccc2Cl)cc1 | 6800 | 59 | – |
| CCc1ccc(Cc2cc([C@@H]3O[C@H](CO)[C@@H](O)C[C@H]3O)ccc2C)cc1 | – | 2000 | – |
| CCc1ccc(Cc2cc([C@@H]3O[C@H](CO)[C@@H](O)[C@@H](O)[C@H]3O)ccc2C)cc1 | – | 3700 | – |
| COc1ccc(Cc2cc([C@@H]3O[C@H](CO)[C@@H](OC)[C@H](O)[C@H]3O)ccc2Cl)cc1 | – | 180 | – |
| CCOc1ccc(Cc2cc([C@@H]3O[C@H](CO)[C@@H](O)[C@H](O)[C@H]3O)ccc2Cl)cc1 [DAPAGLIFLOZIN] | – | – | clearance [6]: 10 mL/min/kg; Vd [7]: 3.8 L/kg; half-life [8]: 264 min; bioavailability [9]: 100% |
| CCc1ccc(Cc2cc([C@@H]3O[C@H](CO)[C@H](O)[C@H](O)[C@H]3O)ccc2C)cc1 | – | 139 | – |
| CCc1ccc(Cc2cc([C@H]3C[C@@H](O)[C@H](O)[C@@H](CO)O3)ccc2C)cc1 | – | > 10000 | – |

More lines, in order of falling IC50 [2], values ahead:

| IC50 [1] [nM] | IC50 [2] [nM] | SMILES | further results |
| --- | --- | --- | --- |
| 1100 | 53 | CCc1ccc(Cc2cc([C@@H]3O[C@]4(CCCO4)[C@@H](O)[C@H](O)[C@H]3O)ccc2C)cc1 | – |
| 5600 | 32 | CCOc1ccc(Cc2cc([C@@H]3OC4(COC4)[C@@H](O)[C@H](O)[C@H]3O)ccc2Cl)cc1 | – |
| > 9600 | 23 | COc1ccc(Cc2cc([C@@H]3OC4(COC4)[C@@H](O)[C@H](O)[C@H]3O)ccc2Cl)cc1 | – |
| – | 21 | COc1ccc(Cc2cc([C@@H]3O[C@H](CO)C[C@H](O)[C@H]3O)ccc2Cl)cc1 | – |
| > 10000 | 14 | CCc1ccc(Cc2cc([C@@H]3OC4(CS(=O)(=O)C4)[C@@H](O)[C@H](O)[C@H]3O)ccc2C)cc1 | – |
| 370 | 7.9 | COc1ccc(Cc2cc([C@@H]3OC4(CC4)[C@@H](O)[C@H](O)[C@H]3O)ccc2C)cc1 | Ratio IC50 (Homo sapiens): 47; clearance [3]: 48.9 mL/min/kg; Vd [4]: 2.6 L/kg; half-life [5]: 36.6 min |
| 1540 | 6.6 | COc1ccc(Cc2cc([C@@H]3OC4(COC4)[C@@H](O)[C@H](O)[C@H]3O)ccc2C)cc1 | clearance [6]: 22.3 mL/min/kg; Vd [7]: 2.3 L/kg; half-life [8]: 72 min; bioavailability [9]: 100%; Activity (Rattus norvegicus): 2000 mg |
| – | 5.1 | COc1ccc(Cc2cc([C@@H]3O[C@H](CF)[C@@H](O)[C@H](O)[C@H]3O)ccc2Cl)cc1 | – |
| 1500 | 3.4 | CCc1ccc(Cc2cc([C@@H]3OC4(COC4)[C@@H](O)[C@H](O)[C@H]3O)ccc2C)cc1 | – |
| 190 | 3 | CCc1ccc(Cc2cc([C@@H]3OC4(CC4)[C@@H](O)[C@H](O)[C@H]3O)ccc2C)cc1 | Ratio IC50 (Homo sapiens): 63; clearance [3]: 112 mL/min/kg; Vd [4]: 5.7 L/kg; half-life [5]: 35.4 min |
| 73 | 2.4 | COc1ccc(Cc2cc([C@@H]3O[C@H](C)[C@@H](O)[C@H](O)[C@H]3O)ccc2Cl)cc1 | – |
| – | 1.5 | CCc1ccc(Cc2cc([C@@H]3O[C@H](CO)[C@@H](O)[C@H](O)[C@H]3O)ccc2C)cc1 | – |
| 240 | 1 | COc1ccc(Cc2cc([C@@H]3O[C@H](CO)[C@@H](O)[C@H](O)[C@H]3O)ccc2Cl)cc1 | – |
